Laboratory results as given in paper PMC9030166, “Natural Phaeosphaeride A Derivatives Overcome Drug Resistance of Tumor Cells and Modulate Signaling Pathways” (Pharmaceuticals, 2022).

Tests used:
p38 (pThr180/pTyr182) = experiment: MILLIPLEX MAP 9-Plex, p38 active form in A431 lysates; type: cell-based, human; conditions: 10 μM; for p38 (pThr180/pTyr182) fluorescence intensity: A431 cell lysates, M ± mx, control 567.7 ± 266.6; for p38 (pThr180/pTyr182) fluorescence intensity / increase of fluorescence intensity of the active form p38: 1 h; for activation of signaling pathway p38 (pThr180/pTyr182), in words / increase of fluorescence intensity of the active form p38: A431 cells; for increase of fluorescence intensity of the active form p38: versus control
Description: (§1) We used the MILLIPLEX MAP Multi-Pathway Magnetic Bead 9-Plex-Cell Signaling Multiplex Assay, which allows the simultaneous detection of nine phosphorylated proteins that are markers of the main intracellular signaling pathways (phosphorylation site is indicated in parentheses), a universal transcription factor that controls the expression of immune response genes; apoptosis and cell cycle NFκB (pS536); cAMP-dependent transcription factor (CREB (pS133); mitogen-activated kinase p38 (pT180/pY182); stress-activated protein kinase JNK (pT183/pY185); ribosomal […]; transcription factors STAT3 (pS727) and STAT5A/B (pY694/699); protein kinase B (Akt) (pS473); and kinase regulated by extracellular signals ERK1/2 (pT185/pY187).
(§2) The effect of various concentrations of PPA derivatives on the cell culture was studied using xCelligence RTCA equipment (AceaBioscience, San Diego, CA, USA). The concentration closest to the IC50 (10 μM) was chosen as the experimental concentration. The selected concentration of phaeosphaeride A derivatives allows for the assessment of the early effect of compounds on cells and compares their effectiveness. In this experiment, the signaling pathways Akt (pSer473), p70S6K (pThr412), NFkB (p65-pSer536), and CREB (pSer133) were not activated (Table 8). The stress-activated signaling pathways ERK/MAP kinase 1/2 (pThr185/pTyr187), JNK (pThr183/pTyr185), and p38 (pThr180/pTyr182) were activated for these compounds.
(§3) We used a MILLIPLEX MAP Multi-Pathway Magnetic Bead 9-Plex-Cell Signaling Multiplex Assay kit (Merck/Millipore), according to the manufacturer’s protocol. A431 cells were cultured in DMEM with 10% FBS in 24-well plates. Compounds were added to the subconfluent cells at a concentration of 10 μM in DMEM medium for 1 h. Each compound was added in 5 experimental repeats. Cell lysates were prepared with lysis buffer (Millipore) with protease inhibitors (Complete, Roche); the protein concentration in the lysates was determined by the Lowry method. In samples equalized in protein concentration, the active forms of kinase cascades were determined using a Bio-Plex 200 fluorescent analyzer (Bio-Rad).

STAT5 (pTyr694/699) = experiment: MILLIPLEX MAP 9-Plex, STAT5 active form in A431 lysates; type: cell-based, human; conditions: 10 μM; for STAT5 (pTyr694/699) fluorescence intensity: A431 cell lysates, 1 h, M ± mx, control 44.2 ± 10.2
Description: as §1, §2, §3

[1] = tested on: CMT № 1 (Extraskeletal Ewing’s Sarcoma); experiment: MTT cytotoxicity, primary culture of soft tissue sarcoma CMT № 1; type: cell-based; conditions: Homo sapiens, 48 h
Description: It is believed that such cultures have a molecular profile that corresponds more with cells from the human body, in comparison with that of stable cultures of tumor cells (Table 3).
(§4) Cell cultures used in the work: adhesive cultures HBL-100 cells (cells of a normal mammary gland epithelium, immortalized by the SV40 virus and acquired tumorigenicity); MCF-7 breast cancer cells; PC-3 prostate adenocarcinoma cells; HCT-116 colorectal cancer cells; non-small cell lung cancer cells A549; human embryonic kidney cells HEK293; suspension cultures (NCI-H929 and RPMI8226 multiple myeloma cells), K562 chronic myeloid leukemia cells; THP-1 acute monocytic leukemia cells; and Jurkat acute T-cell leukemia cells. We also used several primary cultures of soft tissue sarcomas at 3–4passeges, kindly provided by T.I. Fetisov (The Ethics Committee of N.N. Blokhin NMRCO, protocol code 18-28-09095 and date of approval 28 September 2018).
(§5) Modifications of cell lines: K562/i-S9 is a clone obtained after transfection of K562 cells with the ABCB1 (MDR1) gene-encoding P-glycoprotein [36]. Cells HBL-100/Dox and K562/i-S9_Dox are cells obtained by long-term selection with increasing concentrations of doxorubicin (Sigma-Aldrich, St. Louis, MO, USA) from HBL-100 and K562/i-S9 cells, respectively. MCF-7, A594 cells, and primary cultures of soft tissue sarcomas were cultured in DMEM medium (PanEko, Russia), PC-3 and HCT-116 cells and all suspension cultures in RPMI1640 medium (PanEko, Russia) supplemented with 10% fetal bovine serum (GE Healthcare LifeSciences, USA), and gentamicin at a concentration of 40 μg/mL at 37 °C and 5% CO2.
Cells MCF-7, PC-3, A549, and HCT-116, and primary cultures of STSwere seeded in 96-well plates, 6 × 10^3 cells per well in 90 μL of culture medium. Suspension cultures were seeded at a concentration of 25 × 10^3 cells per well in 135 μL of medium. The test substances were dissolved in DMSO (Applichem, Council Bluffs, IA, USA) until a concentration of 1 × 10^−^2 M was obtained; for the subsequent dilution of the substances, a serum-free culture medium was used. The next day, for adhesive cultures, and on the same day, for suspension cultures, substances were added to the plates in a volume of 10 μL (adhesive cultures) and 15 μL (suspension cultures) per well at various concentrations; each concentration was added in 3–4 repetitions. The cells were cultured in the presence of substances for 48 h. […] The optical density was determined using a Multiskan FC spectrophotometer (Thermo Scientific, Waltham, MA, USA) at a wavelength of 540 nm.
Based on the results of the experiments, a schedule was plotted of the dependence of the percentage of surviving cells (from control) on the concentration of the compound, and the sought concentration IC50 was calculated. […]

HBL-100 = experiment: MTT cytotoxicity, sensitive HBL-100 cells; type: cell-based; conditions: Homo sapiens, 48 h
Description: as §4
(§6) Cells MCF-7, PC-3, A549, and HCT-116, and primary cultures of STSwere seeded in 96-well plates, 6 × 10^3 cells per well in 90 μL of culture medium. Suspension cultures were seeded at a concentration of 25 × 10^3 cells per well in 135 μL of medium. The test substances were dissolved in DMSO (Applichem, Council Bluffs, IA, USA) until a concentration of 1 × 10^−^2 M was obtained; for the subsequent dilution of the substances, a serum-free culture medium was used. The next day, for adhesive cultures, and on the same day, for suspension cultures, substances were added to the plates in a volume of 10 μL (adhesive cultures) and 15 μL (suspension cultures) per well at various concentrations; each concentration was added in 3–4 repetitions. The cells were cultured in the presence of substances for 48 h. Then, MTT reagent (PanEko, Moscow, Russia) was added to the wells at a concentration of 5 mg/mL in a volume of 20 μL per well. After 1.5–2 h, the medium with the reagent was removed, and the precipitate of the crystals of formazan was dissolved in 60 μL of DMSO. The optical density was determined using a Multiskan FC spectrophotometer (Thermo Scientific, Waltham, MA, USA) at a wavelength of 540 nm.
Based on the results of the experiments, a schedule was plotted of the dependence of the percentage of surviving cells (from control) on the concentration of the compound, and the sought concentration IC50 was calculated. The experiments were carried out in 3–4 times.

HBL-100/Dox = experiment: MTT cytotoxicity, resistant HBL-100/Dox cells; type: cell-based, human; conditions: for IC50: Homo sapiens, HBL-100, resistant version, MTT, 48 h; for resistance of HBL-100/Dox cells relative to HBL-100: ratio of IC50 values, Table 5
Description: At the next stage, the cytotoxic activity of compounds 1, 2, and 9 (Scheme 2) was investigated on several pairs of cell lines that differ in the expression of P-gp and the method by which they were obtained. […] K562/i-S9_Dox cells were obtained from K562/i-S9 by selection with low concentrations of doxorubicin to increase P-gp expression.
as §5, §6
The experiments were carried out in 3–4 times.

CCCCC[C@@H]1OC2=C(C(=O)N(OC)/C2=C\n2cnnc2)C(n2cnnc2)[C@@]1(C)O (some centres unmarked) [Compound 10]
p38 (pThr180/pTyr182) fluorescence intensity (p38 (pThr180/pTyr182)): 1783.6 ± 181.9 *↑ rel. units | activation of signaling pathway p38 (pThr180/pTyr182), in words (p38 (pThr180/pTyr182)): only slightly activated | STAT5 (pTyr694/699) fluorescence intensity (STAT5 (pTyr694/699)): 115.2 ± 16.9 *↑ rel. units

C=C1C2=C(C(=O)N1OC)[C@@H](N(C)C)[C@@](C)(O)[C@H](CCCCC)O2 [Compound 2, (2S,3R,4R)-4-(dimethylamino)-3-hydroxy-6-methoxy-3-methyl-7-methylene-2-pentyl-3,4,6,7-tetrahydropyrano[2,3-c]pyrrol-5(2H)-one]
p38 (pThr180/pTyr182) fluorescence intensity (p38 (pThr180/pTyr182)): 2795.4 ± 572.0 *↑ rel. units | activation of signaling pathway p38 (pThr180/pTyr182), in words (p38 (pThr180/pTyr182)): maximum degree of activation | increase of fluorescence intensity of the active form p38 (p38 (pThr180/pTyr182)): 1.5–3 times | STAT5 (pTyr694/699) fluorescence intensity (STAT5 (pTyr694/699)): 179.2 ± 12.6 *↑ rel. units | activation of transcription factor STAT5A/B (pTyr694/699), in words (STAT5 (pTyr694/699); A431 cells): slightly activated | IC50 [1]: 1.6 ± 0.7 µM | IC50 (HBL-100): 4.9 ± 1 µM | IC50 (HBL-100/Dox): 6.6 ± 1.2 µM | resistance of HBL-100/Dox cells relative to HBL-100 (HBL-100/Dox): no difference in resistance

C=C1C2=C(C(=O)N1OC)[C@@H](N(CCCC)CCCC)[C@@](C)(O)[C@H](CCCCC)O2 [Compound 5, (2S,3R,4R)-4-(dibutylamino)-3-hydroxy-6-methoxy-3-methyl-7-methylene-2-pentyl-3,4,6,7-tetrahydropyrano[2,3-c]pyrrol-5(2H)-one]
p38 (pThr180/pTyr182) fluorescence intensity (p38 (pThr180/pTyr182)): 1245.9 ± 342.8 rel. units | activation of signaling pathway p38 (pThr180/pTyr182), in words (p38 (pThr180/pTyr182)): only slightly activated | STAT5 (pTyr694/699) fluorescence intensity (STAT5 (pTyr694/699)): 75.7 ± 2.7 *↑ rel. units

C=C1C2=C(C(=O)N1OC)[C@@H](N(CC)CCO)[C@@](C)(O)[C@H](CCCCC)O2 [Compound 9, (2S,3R,4R)-4-[ethyl(2-hydroxyethyl)amino]-3-hydroxy-6-methoxy-3-methyl-7-methylene-2-pentyl-3,4,6,7-tetrahydropyrano[2,3-c]pyrrol-5(2H)-one]
p38 (pThr180/pTyr182) fluorescence intensity (p38 (pThr180/pTyr182)): 657.1 ± 287.5 rel. units | increase of fluorescence intensity of the active form p38 (p38 (pThr180/pTyr182)): 1.5–3 times | STAT5 (pTyr694/699) fluorescence intensity (STAT5 (pTyr694/699)): 69.6 ± 15.6 rel. units | IC50 [1]: 2.9 ± 1.1 µM | IC50 (HBL-100): 6.5 ± 0.8 µM | IC50 (HBL-100/Dox): 8.4 ± 0.4 µM | resistance of HBL-100/Dox cells relative to HBL-100 (HBL-100/Dox): tendency towards a slightly higher resistance

C=C1C2=C(C(=O)N1OC)[C@@H](N1CCCC1)[C@@](C)(O)[C@H](CCCCC)O2 [Compound 1]
p38 (pThr180/pTyr182) fluorescence intensity (p38 (pThr180/pTyr182)): 2349.9 ± 755.5 rel. units | increase of fluorescence intensity of the active form p38 (p38 (pThr180/pTyr182)): 1.5–3 times | STAT5 (pTyr694/699) fluorescence intensity (STAT5 (pTyr694/699)): 115.4 ± 28.3 rel. units | IC50 [1]: 2.6 ± 1.1 µM | IC50 (HBL-100): 6.2 ± 0.8 µM | IC50 (HBL-100/Dox): 7.6 ± 0.6 µM | resistance of HBL-100/Dox cells relative to HBL-100 (HBL-100/Dox): no difference in resistance
